Results reported in patent US20250101028A1, “HETEROCYCLIC COMPOUNDS, COMPOSITIONS THEREOF, AND METHODS OF TREATMENT THEREWITH” (BeiGene, Ltd., priority 2022, published 2025).

target: T1, GST-tagged GDP-loaded KRAS G12V (amino acids 1-169) (Homo sapiens, UniProt P01116, G12V); test: KRAS G12V probe displacement assay (TR-FRET); format: binding; details: displacement of biotinylated probe 2 from GDP-loaded KRAS G12V
T1 construct: GST-tagged GDP-loaded KRAS G12V (amino acids 1-169); made in house; host or cells: E. coli
Experimental: KRAS WT and KRAS G12V Probe Displacement Assay
This assay was used to identify compounds which bind to GDP-loaded KRAS protein and are able to displace a biotinylated probe occupying the KRAS binding site. GST-tagged GDP-loaded WT KRAS (amino acids 1-169) and GST-tagged GDP-loaded KRAS G12V (amino acids 1-169) were expressed in E. coli and purified in house. All protein and reaction solutions were prepared in assay buffer containing 50 mM HEPES pH7.5, 50 mM NaCl, 1 mM MgCl2, 1 mM TCEP, 0.01% BSA, and 0.008% Brij-35. Purified WT KRAS (3 nM final concentration) or KRAS G12V protein (2 nM final concentration) was incubated with a 3-fold serially diluted compound in the assay plate (384 well microplate, black, Corning). Plates are incubated at 24° C. for 1 hr. Following the incubation, biotinylated probe 1 (60 nM final assay concentration) for WT KRAS and biotinylated probe 2 (2.5 nM final assay concentration) for KRAS G12V was added to the assay plate, respectively. After 1 hr incubation at 24° C., Mab Anti-GST-Tb cryptate (Cisbio) and Streptavidin-XL665 (Cisbio) were added and further incubated at 24° C. for another 1 hr. The TR-FRET signals (ex337 nm, em665 nm/620 nm) were read on BMG PHERAstar FSX instrument. The inhibition percentage of KRAS protein binding with biotinylated probe in presence of increasing concentrations of compounds was calculated based on the ratio of fluorescence at 665 nm to that at 620 nm. The IC50 value of each compound was calculated from fitting the data to the four-parameter logistic model by Dotmatics.

T1 sequence (P01116 1-169 isoform P01116-2 G12V): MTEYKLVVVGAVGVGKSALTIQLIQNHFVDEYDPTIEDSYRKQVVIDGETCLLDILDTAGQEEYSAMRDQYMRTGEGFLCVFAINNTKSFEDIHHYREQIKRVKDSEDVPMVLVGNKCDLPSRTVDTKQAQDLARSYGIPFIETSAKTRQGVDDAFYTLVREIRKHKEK

**Q.** `Nc1nc2c(-c3c(C(F)(F)F)cc4c(N5CC(F)(F)C5)nc(OC[C@@]56CCCN5C[C@H](F)C6)nc4c3F)ccc(F)c2s1` [Example 38, 4-(4-(3,3-difluoroazetidin-1-yl)-8-fluoro-2-(((2R,7aS)-2-fluorotetrahydro-1H-pyrrolizin-7a(5H)-yl)methoxy)-6-(trifluoromethyl)quinazolin-7-yl)-7-fluorobenzo[d]thiazol-2-amine] was tested. Which IC50 did it give?
**A.** 25 nM

**Q.** With `N#CCC1CN(c2nc(OC[C@@]34CCCN3C[C@H](F)C4)nc3c(F)c(-c4ccc(F)c5sc(N)nc45)c(C(F)(F)F)cc23)C1` [Example 40, 2-(1-(7-(2-amino-7-fluorobenzo[d]thiazol-4-yl)-8-fluoro-2-(((2R,7aS)-2-fluorotetrahydro-1H-pyrrolizin-7a(5H)-yl)methoxy)-6-(trifluoromethyl)quinazolin-4-yl)azetidin-3-yl)acetonitrile] as the molecule, how does the IC50 read?
**A.** 12 nM

**Q.** Which IC50 does the source give for `N#CCCC1CN(c2nc(OC[C@@]34CCCN3C[C@H](F)C4)nc3c(F)c(-c4ccc(F)c5sc(N)nc45)c(C(F)(F)F)cc23)C1` [Example 41, 3-(1-(7-(2-amino-7-fluorobenzo[d]thiazol-4-yl)-8-fluoro-2-(((2R,7aS)-2-fluorotetrahydro-1H-pyrrolizin-7a(5H)-yl)methoxy)-6-(trifluoromethyl)quinazolin-4-yl)azetidin-3-yl)propanenitrile] here?
**A.** 12 nM

**Q.** `CC1(C#N)CN(c2nc(OC[C@@]34CCCN3C[C@H](F)C4)nc3c(F)c(-c4ccc(F)c5sc(N)nc45)c(C(F)(F)F)cc23)C1` [Example 42, 1-(7-(2-amino-7-fluorobenzo[d]thiazol-4-yl)-8-fluoro-2-(((2R,7aS)-2-fluorotetrahydro-1H-pyrrolizin-7a(5H)-yl)methoxy)-6-(trifluoromethyl)quinazolin-4-yl)-3-methylazetidine-3-carbonitrile] was tested. Which IC50 did it give?
**A.** 70 nM

**Q.** For `CS(=O)(=O)C1CN(c2nc(OC[C@@]34CCCN3C[C@H](F)C4)nc3c(F)c(-c4ccc(F)c5sc(N)nc45)c(C(F)(F)F)cc23)C1` [Example 44, 7-fluoro-4-(8-fluoro-2-(((2R,7aS)-2-fluorotetrahydro-1H-pyrrolizin-7a(5H)-yl)methoxy)-4-(3-(methylsulfonyl)azetidin-1-yl)-6-(trifluoromethyl)quinazolin-7-yl)benzo[d]thiazol-2-amine], which IC50 is on record?
**A.** 14 nM

**Q.** How did the IC50 turn out when `COC1CN(c2nc(OC[C@@]34CCCN3C[C@H](F)C4)nc3c(F)c(-c4ccc(F)c5sc(N)nc45)c(C(F)(F)F)cc23)C1` [Example 45, 7-fluoro-4-(8-fluoro-2-(((2R,7aS)-2-fluorotetrahydro-1H-pyrrolizin-7a(5H)-yl)methoxy)-4-(3-methoxyazetidin-1-yl)-6-(trifluoromethyl)quinazolin-7-yl)benzo[d]thiazol-2-amine] was run?
**A.** 15 nM

**Q.** Which IC50 does the source give for `CC1(O)CN(c2nc(OC[C@@]34CCCN3C[C@H](F)C4)nc3c(F)c(-c4ccc(F)c5sc(N)nc45)c(C(F)(F)F)cc23)C1` [Example 46, 1-(7-(2-amino-7-fluorobenzo[d]thiazol-4-yl)-8-fluoro-2-(((2R,7aS)-2-fluorotetrahydro-1H-pyrrolizin-7a(5H)-yl)methoxy)-6-(trifluoromethyl)quinazolin-4-yl)-3-methylazetidin-3-ol] here?
**A.** 7.1 nM

**Q.** `CC1C(O)CN1c1nc(OC[C@@]23CCCN2C[C@H](F)C3)nc2c(F)c(-c3ccc(F)c4sc(N)nc34)c(C(F)(F)F)cc12` (stereo partly drawn) [Example 47, 1-(7-(2-amino-7-fluorobenzo[d]thiazol-4-yl)-8-fluoro-2-(((2R,7aS)-2-fluorotetrahydro-1H-pyrrolizin-7a(5H)-yl)methoxy)-6-(trifluoromethyl)quinazolin-4-yl)-2-methylazetidin-3-ol] was tested. Which IC50 did it give?
**A.** 1.9 nM

**Q.** Which IC50 does the source give for `Nc1nc2c(-c3c(C(F)(F)F)cc4c(N5CC(CO)C5)nc(OC[C@@]56CCCN5C[C@H](F)C6)nc4c3F)ccc(F)c2s1` [Example 48, (1-(7-(2-amino-7-fluorobenzo[d]thiazol-4-yl)-8-fluoro-2-(((2R,7aS)-2-fluorotetrahydro-1H-pyrrolizin-7a(5H)-yl)methoxy)-6-(trifluoromethyl)quinazolin-4-yl)azetidin-3-yl)methanol] here?
**A.** 4.1 nM

**Q.** How did the IC50 turn out when `Nc1nc2c(-c3c(C(F)(F)F)cc4c(N5CC[C@@H]5CO)nc(OC[C@@]56CCCN5C[C@H](F)C6)nc4c3F)ccc(F)c2s1` [Example 49, ((2R)-1-(7-(2-amino-7-fluorobenzo[d]thiazol-4-yl)-8-fluoro-2-(((2R,7aS)-2-fluorotetrahydro-1H-pyrrolizin-7a(5H)-yl)methoxy)-6-(trifluoromethyl)quinazolin-4-yl)azetidin-2-yl) methanol] was run?
**A.** 3 nM

**Q.** With `Nc1nc2c(-c3c(C(F)(F)F)cc4c(N5CCCC5)nc(OC[C@@]56CCCN5C[C@H](F)C6)nc4c3F)ccc(F)c2s1` [Example 50, 7-fluoro-4-(8-fluoro-2-(((2R,7aS)-2-fluorotetrahydro-1H-pyrrolizin-7a(5H)-yl)methoxy)-4-(pyrrolidin-1-yl)-6-(trifluoromethyl)quinazolin-7-yl)benzo[d]thiazol-2-amine] as the molecule, how does the IC50 read?
**A.** 13 nM

**Q.** How did the IC50 turn out when `Nc1nc2c(-c3c(C(F)(F)F)cc4c(N5CC[C@@H](F)C5)nc(OC[C@@]56CCCN5C[C@H](F)C6)nc4c3F)ccc(F)c2s1` [Example 51, 7-fluoro-4-(8-fluoro-4-((R)-3-fluoropyrrolidin-1-yl)-2-(((2R,7aS)-2-fluorotetrahydro-1H-pyrrolizin-7a(5H)-yl)methoxy)-6-(trifluoromethyl)quinazolin-7-yl)benzo[d]thiazol-2-amine] was run?
**A.** 11 nM

**Q.** With `Nc1nc2c(-c3c(C(F)(F)F)cc4c(N5CC[C@H](F)C5)nc(OC[C@@]56CCCN5C[C@H](F)C6)nc4c3F)ccc(F)c2s1` [Example 52, 7-fluoro-4-(8-fluoro-4-((S)-3-fluoropyrrolidin-1-yl)-2-(((2R,7aS)-2-fluorotetrahydro-1H-pyrrolizin-7a(5H)-yl)methoxy)-6-(trifluoromethyl)quinazolin-7-yl)benzo[d]thiazol-2-amine] as the molecule, how does the IC50 read?
**A.** 19 nM

**Q.** Which IC50 does the source give for `Nc1nc2c(-c3c(C(F)(F)F)cc4c(N5CCC(F)(F)C5)nc(OC[C@@]56CCCN5C[C@H](F)C6)nc4c3F)ccc(F)c2s1` [Example 53, 4-(4-(3,3-difluoropyrrolidin-1-yl)-8-fluoro-2-(((2R,7aS)-2-fluorotetrahydro-1H-pyrrolizin-7a(5H)-yl)methoxy)-6-(trifluoromethyl)quinazolin-7-yl)-7-fluorobenzo[d]thiazol-2-amine] here?
**A.** 12 nM

**Q.** How did the IC50 turn out when `C[C@@H]1CCN(c2nc(OC[C@@]34CCCN3C[C@H](F)C4)nc3c(F)c(-c4ccc(F)c5sc(N)nc45)c(C(F)(F)F)cc23)C1` [Example 54, 7-fluoro-4-(8-fluoro-2-(((2R,7aS)-2-fluorotetrahydro-1H-pyrrolizin-7a(5H)-yl)methoxy)-4-((R)-3-methylpyrrolidin-1-yl)-6-(trifluoromethyl)quinazolin-7-yl)benzo[d]thiazol-2-amine] was run?
**A.** 41 nM

**Q.** Which IC50 does the source give for `C[C@@H]1CCCN1c1nc(OC[C@@]23CCCN2C[C@H](F)C3)nc2c(F)c(-c3ccc(F)c4sc(N)nc34)c(C(F)(F)F)cc12` [Example 55, 7-fluoro-4-(8-fluoro-2-(((2R,7aS)-2-fluorotetrahydro-1H-pyrrolizin-7a(5H)-yl)methoxy)-4-((R)-2-methylpyrrolidin-1-yl)-6-(trifluoromethyl)quinazolin-7-yl)benzo[d]thiazol-2-amine] here?
**A.** 168 nM

**Q.** `C[C@H]1CCCN1c1nc(OC[C@@]23CCCN2C[C@H](F)C3)nc2c(F)c(-c3ccc(F)c4sc(N)nc34)c(C(F)(F)F)cc12` [Example 56, 7-fluoro-4-(8-fluoro-2-(((2R,7aS)-2-fluorotetrahydro-1H-pyrrolizin-7a(5H)-yl)methoxy)-4-((S)-2-methylpyrrolidin-1-yl)-6-(trifluoromethyl)quinazolin-7-yl)benzo[d]thiazol-2-amine] was tested. Which IC50 did it give?
**A.** 22 nM

**Q.** With `CC1(C)CCCN1c1nc(OC[C@@]23CCCN2C[C@H](F)C3)nc2c(F)c(-c3ccc(F)c4sc(N)nc34)c(C(F)(F)F)cc12` [Example 57, 4-(4-(2,2-dimethylpyrrolidin-1-yl)-8-fluoro-2-(((2R,7aS)-2-fluorotetrahydro-1H-pyrrolizin-7a(5H)-yl)methoxy)-6-(trifluoromethyl)quinazolin-7-yl)-7-fluorobenzo[d]thiazol-2-amine] as the molecule, how does the IC50 read?
**A.** 180 nM

**Q.** For `CC[C@@H]1CCCN1c1nc(OC[C@@]23CCCN2C[C@H](F)C3)nc2c(F)c(-c3ccc(F)c4sc(N)nc34)c(C(F)(F)F)cc12` [Example 58, 4-(4-((R)-2-ethylpyrrolidin-1-yl)-8-fluoro-2-(((2R,7aS)-2-fluorotetrahydro-1H-pyrrolizin-7a(5H)-yl)methoxy)-6-(trifluoromethyl)quinazolin-7-yl)-7-fluorobenzo[d]thiazol-2-amine], which IC50 is on record?
**A.** 40 nM

**Q.** `CC[C@H]1CCCN1c1nc(OC[C@@]23CCCN2C[C@H](F)C3)nc2c(F)c(-c3ccc(F)c4sc(N)nc34)c(C(F)(F)F)cc12` [Example 59, 4-(4-((S)-2-ethylpyrrolidin-1-yl)-8-fluoro-2-(((2R,7aS)-2-fluorotetrahydro-1H-pyrrolizin-7a(5H)-yl)methoxy)-6-(trifluoromethyl)quinazolin-7-yl)-7-fluorobenzo[d]thiazol-2-amine] was tested. Which IC50 did it give?
**A.** 27 nM
